Key:
Test in all cases: Loewe additivity (CHALICE) synergy screen, CellTiter-Glo viability, 7x7 dose matrix
Type in all cases: cell-based
Set-up in all cases: key to Max Combo Effect: growth inhibition scale; 100 = stasis
[1] = system: CHP-134 human neuroblastoma cells; details: CHP-134 (WT), Table 3; for Max Combo Effect: in % (unit assumed)
Protocol: (§1) The synergistic interaction of drug combinations were assessed based on the Loewe Additivity Model using Chalice software [CombinatoRx, Cambridge Mass.]). […] 27:659-66. The software compares the response (% inhibition or % reduction of cell viability) of drug treatment from a combination of two agents to the response of the agents acting alone, against the drug-with-itself dose-additive reference model (the Loewe Additivity Model). Deviations from dose additives can be assessed numerically with a “synergy score” which quantifies the overall strength of combination effect. A synergy score >0 indicates a synergistic combination. In order to ensure only strongly synergistic combinations were selected, the acceptance criteria were set at a higher level. Strongly synergistic combinations were defined as having both a synergy score >2, a synergy score that is twice as large as the background (non-synergy) model would predict, and a maximum efficacy of >100, a value equivalent to stasis, as determined from the growth inhibition calculation.
(§2) After treatment, cell viabilty (quantity of viable cells) for each test mixtures were determined by the CellTiter-Glo® (CTG) luminescent cell viability assay (Promega) described in the Assay section, infra. […] The response to treatment (% reduction of cell viability) was analyzed using Chalice software [CombinatoRx, Cambridge Mass.]). Data evaluation and graph generation were performed using Microsoft Excel software and Chalice software.
(§3) The combinations were tested in duplicate using a 7×7 dose matrix block in 1536 well format with a cell proliferation readout as described in the Assay section infra.
(§4) All synergy calculations were performed using CHALICE software package from Zalicus and potential synergistic interactions between compound combinations were assessed using the Excess Inhibition 2D matrix according to the Loewe additivity model and were reported as synergy score (Table 10) (Lehar et al). Strongly synergistic combination were identified as having both (1) a synergy score greater than 2, a synergy score that is twice as large as the background (non-synergy) model would predict, and (2) a maximum efficacy of >100, a value roughly equivalent to stasis, as determined from the growth inhibition calculation.
(§5) Cell viability were determined by measuring cellular ATP content using the CellTiter-Glo® (CTG) luminescent cell viability assay (Promega). […] Reduced and enhanced luminescent signal values (responses) were calculated relative to untreated (control) cells, and the calculated signal value proportional to the cell viability.
(§6) Synergistic combinations were identified based on the Loewe Addivity Model. To measure the effects of drug combinations on the cell viability, cells from the 20 cell lines listed in Table 1 above were seeded into 1536-well assay plates at a density 300 cells per well in a 7 μL final volume and incubated at 37° C. overnight in a GNF Systems incubator with 95% RH and 5% CO2.
(§7) A six-point dose response curve for the test compounds were prepared in a 384 well ECHO compatible source plate (Labcyte P-05525) with 3-fold serial dilution series. For example, for a six-point dose response curve and a top compound concentration of 5 mM, the concentration of the compounds in the source well were 5 mM, 1.67 mM, 0.56 mM, 0.19 mM, 0.06 mM and 0.02 mM.
(§8) Approximately 18 hours after plating, compound combinations were generated on the fly by transferring 7.5 nL of compound from the pre-diluted source plates using the Labcyte ECHO555 integrated onto the ACP-1 system with replicate plates per cell line; the final DMSO concentration per well was 0.2%. It is noted that the total volume in the wells was 7 μL.
(§9) The well at the intersection of the first column and first row which received no compound was dosed with 2×7.5 nL of DMSO and served as control.

[2] = system: IMR-5 human neuroblastoma cells; details: IMR-5 (WT); Table 3
Protocol: as §1, §2, §3, §4, §5, §6, §7, §8, §9

[3] = system: KELLY human neuroblastoma cells; details: KELLY (F1174L); Table 3
Protocol: as §1, §2, §3, §4, §5, §6, §7, §8, §9

[4] = system: LAN-5 human neuroblastoma cells; details: LAN-5 (R1275Q); Table 3
Protocol: as §1, §2, §3, §4, §5, §6, §7, §8, §9

[5] = system: NB-1 human neuroblastoma cells; details: NB-1 (WT_Amp), Table 3
Protocol: as §1, §2, §3, §4, §5, §6, §7, §8, §9

[6] = system: NB-1691 human neuroblastoma cells; details: NB-1691 (WT), Table 3; for Max Combo Effect: in % (unit assumed)
Protocol: as §1, §2, §3, §4, §5, §6, §7, §8, §9

[7] = system: NB-SD human neuroblastoma cells; details: NB-SD (F1174L), Table 3; for Max Combo Effect: in % (unit assumed)
Protocol: as §1, §2, §3, §4, §5, §6, §7, §8, §9

[8] = system: NLF human neuroblastoma cells; details: NLF (WT); Table 3
Protocol: as §1, §2, §3, §4, §5, §6, §7, §8, §9

[9] = system: SK-N-AS human neuroblastoma cells; details: SK-N-AS (WT), Table 3; for Max Combo Effect: in % (unit assumed)
Protocol: as §1, §2, §3, §4, §5, §6, §7, §8, §9

[10] = system: SK-N-BE(2) human neuroblastoma cells; details: SK-N-BE(2) (WT); Table 3
Protocol: as §1, §2, §3, §4, §5, §6, §7, §8, §9

[11] = system: SK-N-FI human neuroblastoma cells; details: SK-N-FI (WT), Table 3; for Max Combo Effect: in % (unit assumed)
Protocol: as §1, §2, §3, §4, §5, §6, §7, §8, §9

[12] = system: SH-SY5Y human neuroblastoma cells; details: SH-SY5Y (F1174L); Table 3
Protocol: as §1, §2, §3, §4, §5, §6, §7, §8, §9

SMILES | Synergy score (Mean) [1] | Max Combo Effect [1] | Max Combo Effect [2] | Synergy score (Mean) [2] | Max Combo Effect [3] | Synergy score (Mean) [3] | Synergy score (Mean) [6] | Max Combo Effect [6] | Synergy score (Mean) [7] | Max Combo Effect [7] | Max Combo Effect [8] | Synergy score (Mean) [8] | Synergy score (Mean) [9] | Max Combo Effect [9] | Max Combo Effect [10] | Synergy score (Mean) [10] | Max Combo Effect [11] | further results
Cc1cc(Nc2nc(Nc3ccccc3S(=O)(=O)C(C)C)c3cn[nH]c3n2)c(OC(C)C)cc1C1CCN(C)CC1 [Compound A2, N6-(2-isopropoxy-5-methyl-4-(1-methylpiperidin-4-yl)phenyl)-N4-(2-(isopropylsulfonyl)phenyl)-1H-pyrazolo[3,4-d]pyrimidine-4,6-diamine] | 0.10 | 180.10 | 179.71 | 0.23 | 191.61 | 0.64 | 0.97 | 196.56 | 1.38 | 195.92 | 183.68 | 0.63 | 0.20 | 61.99 | 177.26 | 0.47 | 161.68 | Max Combo Effect [4]: 196.81; Synergy score (Mean) [4]: 0.87; Synergy score (Mean) [5]: identified as synergistic; Max Combo Effect ([5]; in % (unit assumed)): 193.34; Synergy score (Mean) ([5]; listed as Cmpd A2 Self Cross): 2.97; Synergy score (Mean) [11]: 0.65
C[C@@H](Oc1cc(-c2cnn(C3CCNCC3)c2)cnc1N)c1c(Cl)ccc(F)c1Cl [Compound A3, (R)-3-(1-(2,6-dichloro-3-fluorophenyl)ethoxy)-5-(1-(piperidin-4-yl)-1H-pyrazol-4-yl)pyridin-2-amine, reference compound] | 0.02 | 10.05 | 99.95 | 0.73 | 134.74 | 0.47 | 0.21 | 36.53 | 0.84 | 75.54 | 29.10 | 0.08 | 0.19 | 55.78 | 10.76 | 0.02 | 20.37 | Max Combo Effect [12]: 141.61; Synergy score (Mean) [12]: 0.98

— US20160361314A1, “COMBINATION OF AN ALK INHIBITOR AND A CDK INHIBITOR FOR THE TREATMENT OF CELL PROLIFERATIVE DISEASES” (NOVARTIS AG, priority 2013, published 2016)
